According to patent US20230265151A1, “GIP/GLP1 CO-AGONIST COMPOUNDS” (priority 2020, published 2023):
Like-named read-outs stand apart in the source and are kept apart here. *1 amine or outer side, *2 acyl side, *3 side chain or, on linkers, in order; H or OH if unused. Where a SMILES comes first, the peptide text is derived from it. Side-chain parts run from the residue outwards. [ ]: non-standard residue; d: D form. The star is where a group is joined. αMePhe(2-F) = C[C@](N)(Cc1ccccc1F)C(=O)O; γGlu = O=C(O)[C@H](CCC(=O)[*:2])N[*:1]; C14 diacid = O=C(O)CCCCCCCCCCCCC(=O)*; αMeY = C[C@](N)(Cc1ccc(O)cc1)C(=O)O; αMeF = C[C@](N)(Cc1ccccc1)C(=O)O; αMeL = CC(C)C[C@](C)(N)C(=O)O; Orn = NCCC[C@H](N)C(=O)O; AEEA = NCCOCCOCC(=O)O; Aib = CC(C)(N)C(=O)O

How the values were obtained:
Format in all cases: cell-based
[1] = molecular target: T1, hGIPR (Homo sapiens, UniProt P48546); assay: Functional cAMP formation (HTRF) in HEK-293 clonal cells expressing hGIPR, 0.1% bovine casein, without or with 1.0% human serum albumin; settings: for Emax: 37° C., 0.1% bovine casein, arithmetic mean; for EC50: cAMP, incubated at 37° C., 0.1% bovine casein (no human serum albumin), geometric mean
T1 construct: expressed in transfected cells
T1 sequence (P48546 22-466): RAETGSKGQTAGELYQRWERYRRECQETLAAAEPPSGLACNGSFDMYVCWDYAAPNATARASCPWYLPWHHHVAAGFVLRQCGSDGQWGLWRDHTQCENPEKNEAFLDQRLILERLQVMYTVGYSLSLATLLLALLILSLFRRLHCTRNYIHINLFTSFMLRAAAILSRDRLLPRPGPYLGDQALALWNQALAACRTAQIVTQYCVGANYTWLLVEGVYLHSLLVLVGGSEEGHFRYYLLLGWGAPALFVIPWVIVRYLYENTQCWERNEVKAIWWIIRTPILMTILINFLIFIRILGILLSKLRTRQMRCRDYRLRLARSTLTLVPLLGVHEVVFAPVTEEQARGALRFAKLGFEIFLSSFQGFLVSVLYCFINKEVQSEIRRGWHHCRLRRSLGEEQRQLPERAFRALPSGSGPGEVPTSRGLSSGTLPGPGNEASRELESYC
Outline: (§1)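 Cells were stimulated with peptide for 30 min at 37° C, then intracellular cAMP was measured by competitive HTRF (665/620 nm ratio) and converted to nM using a cAMP standard curve. Relative EC50 and Emax came from four-parameter logistic fits of percent maximal response against peptide concentration.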

[2] = molecular target: T2, hGCGR (Homo sapiens, UniProt P47871); assay: Functional cAMP formation (HTRF) in HEK-293 clonal cells expressing hGCGR, 0.1% bovine casein, without or with 1.0% human serum albumin; settings: cAMP, incubated at 37° C., 0.1% bovine casein (no human serum albumin), geometric mean
T2 construct: expressed in transfected cells
Outline: as §1

[3] = molecular target: hGLP-1R (Homo sapiens, UniProt P43220); assay: Functional cAMP formation (HTRF) in HEK-293 clonal cells expressing hGLP-1R, 0.1% bovine casein, without or with 1.0% human serum albumin; set-up: expressed in transfected cells; settings: for Emax: 37° C., 0.1% bovine casein, arithmetic mean; for EC50: hGLP-1R EC50, nM (SEM, n), cAMP, incubated at 37° C., 0.1% bovine casein (no human serum albumin), geometric mean
Outline: as §1

[4] = HEK293, percent of maximal response to GIP(1-42)NH2, read-out: hGIPR Emax, % ± SEM
[5] = read-out: hGIPR EC50, nM (SEM, n)
[6] = read-out: hGCGR EC50, nM (SEM, n)
[7] = HEK293, percent of maximal response to GLP-1(7-36)NH2, read-out: hGLP-1R Emax, % ± SEM
[8] = HEK293, read-out: hGLP-1R Emax, % ± SEM, percent of maximal response to GLP-1(7-36)NH2
[9] = HEK293, read-out: hGIPR Emax, % ± SEM, percent of maximal response to GIP(1-42)NH2

Chain of hGLP-1R (P43220 24-463): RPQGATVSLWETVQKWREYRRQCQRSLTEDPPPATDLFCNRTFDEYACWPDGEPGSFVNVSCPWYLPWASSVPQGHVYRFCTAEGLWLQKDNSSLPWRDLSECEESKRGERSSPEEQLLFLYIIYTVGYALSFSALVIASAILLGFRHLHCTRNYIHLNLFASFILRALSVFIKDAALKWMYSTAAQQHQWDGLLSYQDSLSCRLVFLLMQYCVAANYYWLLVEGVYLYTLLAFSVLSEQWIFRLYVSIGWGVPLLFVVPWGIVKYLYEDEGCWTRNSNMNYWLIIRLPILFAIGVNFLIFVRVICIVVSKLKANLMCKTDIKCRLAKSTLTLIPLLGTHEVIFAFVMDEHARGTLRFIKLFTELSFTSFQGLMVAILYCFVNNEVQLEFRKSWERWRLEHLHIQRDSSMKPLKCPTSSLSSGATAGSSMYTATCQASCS
T2 sequence (P47871 26-477): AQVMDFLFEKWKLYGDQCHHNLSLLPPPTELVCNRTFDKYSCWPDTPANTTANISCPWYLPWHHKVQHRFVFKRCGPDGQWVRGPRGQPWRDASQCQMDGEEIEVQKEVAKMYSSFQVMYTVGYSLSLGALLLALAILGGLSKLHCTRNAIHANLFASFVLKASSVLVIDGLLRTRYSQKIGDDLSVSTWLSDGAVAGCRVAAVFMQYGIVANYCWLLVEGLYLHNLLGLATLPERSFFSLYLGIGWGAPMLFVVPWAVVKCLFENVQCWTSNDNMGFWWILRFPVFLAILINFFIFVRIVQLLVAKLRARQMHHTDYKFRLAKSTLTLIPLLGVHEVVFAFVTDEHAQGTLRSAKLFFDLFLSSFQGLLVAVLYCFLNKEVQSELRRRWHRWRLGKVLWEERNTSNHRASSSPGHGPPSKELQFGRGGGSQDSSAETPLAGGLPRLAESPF

Row | Structure (SMILES) | Emax [1, 4] [%] | EC50 [1, 5] [nM] | EC50 [2, 6] [nM] | Emax [3, 7] [%] | EC50 ([1]; hGIPR EC50, nM (SEM, n)) [nM] | EC50 ([2]; hGCGR EC50, nM (SEM, n)) [nM] | Emax [3, 8] [%] | EC50 [3] [nM] | Emax [1, 9] [%]
1 | CC[C@H](C)[C@H](NC(=O)[C@H](CCCN)NC(=O)[C@H](CC(=O)O)NC(=O)[C@H](CC(C)C)NC(=O)[C@](C)(CC(C)C)NC(=O)[C@@H](NC(=O)[C@H](CO)NC(=O)[C@H](CCCCNC(=O)COCCOCCNC(=O)COCCOCCNC(=O)CC[C@H](NC(=O)CCCCCCCCCCCCC(=O)O)C(=O)O)NC(=O)[C@H](CC(=O)O)NC(=O)[C@H](CO)NC(=O)[C@@H](NC(=O)[C@](C)(Cc1ccccc1F)NC(=O)[C@@H](NC(=O)CNC(=O)[C@H](CCC(=O)O)NC(=O)C(C)(C)NC(=O)[C@@H](N)Cc1ccc(O)cc1)[C@@H](C)O)[C@@H](C)O)[C@@H](C)CC)C(=O)N[C@@H](C)C(=O)N[C@@H](CCC(N)=O)C(=O)NC(C)(C)C(=O)N[C@@H](CCC(=O)O)C(=O)N[C@@H](Cc1ccccc1)C(=O)N[C@H](C(=O)N[C@H](CCC(=O)O)C(=O)N[C@@](C)(Cc1ccc(O)cc1)C(=O)N[C@@H](CC(C)C)C(=O)N[C@H](C(=O)N[C@@H](CCC(=O)O)C(=O)NCC(=O)NCC(=O)N[C@@H](CCCCNC(=O)COCCOCCNC(=O)COCCOCCNC(=O)CC[C@H](NC(=O)CCCCCCCCCCCCC(=O)O)C(=O)O)C(=O)N[C@@H](CO)C(=O)N[C@@H](CO)C(=O)NCC(=O)N[C@@H](C)C(=O)N1CCC[C@H]1C(=O)N1CCC[C@H]1C(=O)N1CCC[C@H]1C(=O)N[C@@H](CO)C(N)=O)[C@@H](C)CC)[C@@H](C)CC [Example 108] (H-Y[Aib]EGT[αMePhe(2-F)]TSDK([AEEA-AEEA-γGlu-C14 diacid])SI[αMeL]LD[Orn]IAQ[Aib]EFI[dE][αMeY]LIEGGK([AEEA-AEEA-γGlu-C14 diacid])SSGAPPPS-NH2; N-terminus assumed) | 85.2 | 0.0249 | > 9950 | 97.6 |  |  |  |  | 
2 | CC[C@H](C)[C@H](NC(=O)[C@H](CCCN)NC(=O)[C@H](CC(=O)O)NC(=O)[C@H](CC(C)C)NC(=O)[C@](C)(CC(C)C)NC(=O)[C@@H](NC(=O)[C@H](CO)NC(=O)[C@H](CCCCNC(=O)COCCOCCNC(=O)COCCOCCNC(=O)CC[C@H](NC(=O)CCCCCCCCCCCCC(=O)O)C(=O)O)NC(=O)[C@H](CC(=O)O)NC(=O)[C@H](CO)NC(=O)[C@@H](NC(=O)[C@](C)(Cc1ccccc1F)NC(=O)[C@@H](NC(=O)CNC(=O)[C@H](CCC(=O)O)NC(=O)C(C)(C)NC(=O)[C@@H](N)Cc1ccc(O)cc1)[C@@H](C)O)[C@@H](C)O)[C@@H](C)CC)C(=O)N[C@@H](C)C(=O)N[C@@H](CCC(N)=O)C(=O)NC(C)(C)C(=O)N[C@@H](CCC(=O)O)C(=O)N[C@@](C)(Cc1ccccc1)C(=O)N[C@H](C(=O)N[C@@H](CCCCNC(=O)COCCOCCNC(=O)COCCOCCNC(=O)CC[C@H](NC(=O)CCCCCCCCCCCCC(=O)O)C(=O)O)C(=O)N[C@@](C)(Cc1ccc(O)cc1)C(=O)N[C@@H](CC(C)C)C(=O)N[C@H](C(=O)N[C@@H](CCC(=O)O)C(=O)NCC(=O)NCC(=O)N1CCC[C@H]1C(=O)N[C@@H](CO)C(=O)N[C@@H](CO)C(=O)NCC(=O)N[C@@H](C)C(=O)N1CCC[C@H]1C(=O)N1CCC[C@H]1C(=O)N1CCC[C@H]1C(=O)N[C@@H](CO)C(N)=O)[C@@H](C)CC)[C@@H](C)CC [Example 110] |  |  |  |  | 0.0417 | > 9950 | 98.8 | 1.43 | 
3 | CC[C@H](C)[C@H](NC(=O)[C@H](CCCN)NC(=O)[C@H](CC(=O)O)NC(=O)[C@H](CC(C)C)NC(=O)[C@](C)(CC(C)C)NC(=O)[C@@H](NC(=O)[C@H](CO)NC(=O)[C@H](CCCCNC(=O)COCCOCCNC(=O)COCCOCCNC(=O)CC[C@H](NC(=O)CCCCCCCCCCCCC(=O)O)C(=O)O)NC(=O)[C@H](CC(=O)O)NC(=O)[C@H](CO)NC(=O)[C@@H](NC(=O)[C@](C)(Cc1ccccc1F)NC(=O)[C@@H](NC(=O)CNC(=O)[C@H](CCC(=O)O)NC(=O)C(C)(C)NC(=O)[C@@H](N)Cc1ccc(O)cc1)[C@@H](C)O)[C@@H](C)O)[C@@H](C)CC)C(=O)N[C@@H](C)C(=O)N[C@@H](CCC(N)=O)C(=O)NC(C)(C)C(=O)N[C@@H](CCC(=O)O)C(=O)N[C@@](C)(Cc1ccccc1)C(=O)N[C@H](C(=O)N[C@H](CCC(=O)O)C(=O)N[C@@](C)(Cc1ccc(O)cc1)C(=O)N[C@@H](CC(C)C)C(=O)N[C@H](C(=O)N[C@@H](CCCCNC(=O)COCCOCCNC(=O)COCCOCCNC(=O)CC[C@H](NC(=O)CCCCCCCCCCCCC(=O)O)C(=O)O)C(=O)NCC(=O)NCC(=O)N1CCC[C@H]1C(=O)N[C@@H](CO)C(=O)N[C@@H](CO)C(=O)NCC(=O)N[C@@H](C)C(=O)N1CCC[C@H]1C(=O)N1CCC[C@H]1C(=O)N1CCC[C@H]1C(=O)N[C@@H](CO)C(N)=O)[C@@H](C)CC)[C@@H](C)CC [Example 111] (H-Y[Aib]EGT[αMePhe(2-F)]TSDK([AEEA-AEEA-γGlu-C14 diacid])SI[αMeL]LD[Orn]IAQ[Aib]E[αMeF]I[dE][αMeY]LIK([AEEA-AEEA-γGlu-C14 diacid])GGPSSGAPPPS-NH2; N-terminus assumed) | 76.1 | 0.0202 | > 9950 | 121 |  |  |  |  | 
4 | CC[C@H](C)[C@H](NC(=O)[C@H](CC(C)C)NC(=O)[C@](C)(Cc1ccc(O)cc1)NC(=O)[C@H](CCCCNC(=O)COCCOCCNC(=O)COCCOCCNC(=O)CC[C@H](NC(=O)CCCCCCCCCCCCC(=O)O)C(=O)O)NC(=O)[C@@H](NC(=O)[C@H](Cc1ccccc1)NC(=O)[C@H](CCC(=O)O)NC(=O)C(C)(C)NC(=O)[C@H](CCC(N)=O)NC(=O)[C@H](C)NC(=O)[C@H](CCCCNC(=O)COCCOCCNC(=O)COCCOCCNC(=O)CC[C@H](NC(=O)CCCCCCCCCCCCC(=O)O)C(=O)O)NC(=O)[C@H](CCCN)NC(=O)[C@H](CC(=O)O)NC(=O)[C@H](CC(C)C)NC(=O)[C@](C)(CC(C)C)NC(=O)[C@@H](NC(=O)C(C)(C)NC(=O)[C@H](Cc1ccncc1)NC(=O)[C@H](CC(=O)O)NC(=O)[C@H](CO)NC(=O)[C@@H](NC(=O)[C@](C)(Cc1ccccc1F)NC(=O)[C@@H](NC(=O)CNC(=O)[C@H](CCC(=O)O)NC(=O)C(C)(C)NC(=O)[C@@H](N)Cc1ccc(O)cc1)[C@@H](C)O)[C@@H](C)O)[C@@H](C)CC)[C@@H](C)CC)C(=O)N[C@@H](CCC(=O)O)C(=O)NCC(=O)NCC(=O)N1CCC[C@H]1C(=O)N[C@@H](CO)C(=O)N[C@@H](CO)C(=O)NCC(=O)N[C@@H](C)C(=O)N1CCC[C@H]1C(=O)N1CCC[C@H]1C(=O)N1CCC[C@H]1C(=O)N[C@@H](CO)C(N)=O [Example 113] |  |  |  |  |  | > 9950 |  | 0.291 | 97.9 ± 3.21
5 | CC[C@H](C)[C@H](NC(=O)[C@H](CC(C)C)NC(=O)[C@](C)(Cc1ccc(O)cc1)NC(=O)[C@H](CCCCNC(=O)COCCOCCNC(=O)COCCOCCNC(=O)CC[C@H](NC(=O)CCCCCCCCCCCCC(=O)O)C(=O)O)NC(=O)[C@@H](NC(=O)[C@H](Cc1ccccc1)NC(=O)[C@H](CCC(=O)O)NC(=O)C(C)(C)NC(=O)[C@H](CCC(N)=O)NC(=O)[C@H](C)NC(=O)[C@H](CCCCNC(=O)COCCOCCNC(=O)COCCOCCNC(=O)CC[C@H](NC(=O)CCCCCCCCCCCCC(=O)O)C(=O)O)NC(=O)[C@H](CCCN)NC(=O)[C@H](CC(=O)O)NC(=O)[C@H](CC(C)C)NC(=O)[C@](C)(CC(C)C)NC(=O)[C@@H](NC(=O)[C@H](CO)NC(=O)[C@@H](NC(=O)[C@H](CC(=O)O)NC(=O)[C@H](CO)NC(=O)[C@@H](NC(=O)[C@](C)(Cc1ccccc1F)NC(=O)[C@@H](NC(=O)CNC(=O)[C@H](CCC(=O)O)NC(=O)C(C)(C)NC(=O)[C@@H](N)Cc1ccc(O)cc1)[C@@H](C)O)[C@@H](C)O)C(C)C)[C@@H](C)CC)[C@@H](C)CC)C(=O)N[C@@H](CCC(=O)O)C(=O)NCC(=O)NCC(=O)N1CCC[C@H]1C(=O)N[C@@H](CO)C(=O)N[C@@H](CO)C(=O)NCC(=O)N[C@@H](C)C(=O)N1CCC[C@H]1C(=O)N1CCC[C@H]1C(=O)N1CCC[C@H]1C(=O)N[C@@H](CO)C(N)=O [Example 114] |  |  |  |  |  | > 9950 | 91.7 | 0.176 | 93.8
